According to patent US11780843B2, “Compounds active towards nuclear receptors” (NUEVOLUTION A/S, priority 2020, dated 2023):
Where two headings read alike, the source gives them in different places.

Experiments:
[1] = molecular target: T1, RORγ ligand-binding domain (Homo sapiens, UniProt P51449); assay: RORγ Reporter Assay (Gal4); format: cell-based
T1 construct: Gal4 (galactose-responsive transcription factor); expressed in transfected cells; host or cells: HEK293, transient co-transfection
T1 sequence (P51449 269-508 limits assumed): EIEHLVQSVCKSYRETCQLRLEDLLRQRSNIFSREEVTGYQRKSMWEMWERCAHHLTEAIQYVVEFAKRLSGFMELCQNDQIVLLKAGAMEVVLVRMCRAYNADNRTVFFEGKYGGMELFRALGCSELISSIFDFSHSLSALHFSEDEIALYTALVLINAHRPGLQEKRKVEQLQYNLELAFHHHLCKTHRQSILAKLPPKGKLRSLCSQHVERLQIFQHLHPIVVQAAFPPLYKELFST
Method: The HEK293 cell line is co-transfected transiently with two plasmids, one with the RORγ ligand-binding domain fused to galactose-responsive transcription factor (Ga14), and the other with the luciferase reporter gene and Gal binding sites (UAS). This construction allows to determine the RORT activity in a cellular system through the measurement of luminescence.
A suspension of RORγ reporter cells was dispensed into plates and cultured 2 h at 37° C. and 5% CO2. Media formulation consisted in DMEM/F-12 medium (Gibco) supplemented with 10% heat inactivated FBS (Sigma-Aldrich), non-essential aminoacids (Sigma-Aldrich), 2 mM Glutamax (Gibco) and 100 U/mL penicillin (Sigma-Aldrich). Dose-response curves with compounds were prepared in 100% DMSO and further diluted 100-fold in culture medium. Compound solutions were added to the plate containing cells (final DMSO concentration of 0.1%) and incubated for 24 h at 37° C. and 5% CO2. Luciferase detection reagent was added to each well, and relative light units (RLUs) were quantified from each assay well using a plate reading luminometer.
Values of average RLU±S.D. were computed for all treatment sets, followed by the calculations of percent-reduction of RORT activity in response to respective test compound. The following formula was used: activity=100*[1−[[…]] where the theoretical minimum reduction (0% reduction). […] These calculations were performed in excel-fit software using X-204 model curve.

[2] = system: IL-17A secretion in activated PBMCs; assay: IL-17A secretion in activated PBMCs; format: cell-based; settings: Homo sapiens, PBMC, 48 h, human PBMCs stimulated with CD3/CD28 Dynabeads for 48 h, absolute IC50
From the text: Heparin-treated whole blood from healthy human volunteers was supplied from Hospital de Sant Pau (Barcelona) under the approval of the local ethical review board for human studies (Hospital de Sant Pau, Barcelona, Spain). Human peripheral blood mononuclear cells (PBMCs) were isolated from healthy human volunteers by density gradient centrifugation using the Ficoll-Paque (GE Healthcare). PBMCs were suspended in cell culture medium which consisted on RPMI 1640 medium (Sigma-Aldrich) containing 10% heat inactivated fetal bovine serum (Sigma-Aldrich), 2 mM L-Glutamine (Gibco), 20 mM Hepes (Gibco) and 100 U/mL penicillin (Sigma-Aldrich). Cells were seeded in 384-well plate (DiscoverX), at 40,000 cells per well and cultured 2 h at 37° C. and 5% CO2.
Dose-response curves with compounds were prepared using a 5-fold serial dilution (10 concentrations) in 100% DMSO and further diluted 100-fold in culture medium. Compound solutions (5 μL) were added to the plate containing cells (final DMSO concentration of 0.1%) and incubated for 30 min. Then, cells were stimulated with CD3/CD28 Dynabeads (ThermoFisher, at a bead-to-cell ratio of 1:1) for 48 h at 37° C. and 5% CO2.
IL-17A levels in supernatant were determined by immunoassay using hIL17A QBeads (Intellicyt) and by fluorescence analysis in iQue flow cytometer following the manufacturer's instructions. Inhibition of IL-17A secretion was calculated using the following formula: inhibition=100*[1−[(x−mean basal condition)/(mean top condition—mean basal condition)]]. Activated DMSO-treated cells were used as top condition and activated GNE09461 (10 μM)-treated cells as basal condition.

[3] = HEK293 cells, luciferase reporter, 24 h incubation, absolute IC50, read-out: IC50

Compound	IC50 [1, 3]	IC50 [2]	IC50 ([1]; stated as a bound only (Tables 5 a, 6, 7), read-out: Gal4 assay IC50)
CN(Cc1ccc(C(F)(F)F)cc1)c1ncnc2c1c(F)cn2C[C@@H]1CCN(CC(N)=O)C[C@H]1O (racemic) [Example P6-12, rac-2-((3R,4R)-4-((5-fluoro-4-(methyl(4-(trifluoromethyl)benzyl)amino)-7H-pyrrolo[2,3-d]pyrimidin-7-yl)methyl)-3-hydroxypiperidin-1-yl)acetamide]	5.2 nM	30 nM	
NC(=O)CN1CC[C@@H](Cn2ccc3c(N(Cc4ccc(C(F)(F)F)cc4)C4CC4)ncnc32)[C@H](O)C1 (racemic) [Example P6-13, rac-2-((3R,4R)-4-((4-(cyclopropyl(4-(trifluoromethyl)benzyl)amino)-7H-pyrrolo[2,3-d]pyrimidin-7-yl)methyl)-3-hydroxypiperidin-1-yl)acetamide]	0.9 nM	1.5 nM	
NC(=O)CN1CC[C@@H](Cn2cc(F)c3c(N(Cc4ccc(C(F)(F)F)cc4)C4CC4)ncnc32)[C@H](O)C1 (racemic) [Example P6-14, rac-2-((3R,4R)-4-((4-(cyclopropyl(4-(trifluoromethyl)benzyl)amino)-5-fluoro-7H-pyrrolo[2,3-d]pyrimidin-7-yl)methyl)-3-hydroxypiperidin-1-yl)acetamide]	1 nM	2.2 nM	
NC(=O)CN1CC[C@@H](Cn2cc(F)c3c(N(Cc4ccc(C(F)(F)F)nc4)C4CC4)ncnc32)[C@H](O)C1 (racemic) [Example P6-15, rac-2-((3R,4R)-4-((4-(cyclopropyl((6-(trifluoromethyl)pyridin-3-yl)methyl)amino)-5-fluoro-7H-pyrrolo[2,3-d]pyrimidin-7-yl)methyl)-3-hydroxypiperidin-1-yl)acetamide]	10 nM	18 nM	
NC(=O)CN1CC[C@@H](Cn2ccc3c(N(Cc4ccc(C(F)(F)F)nc4)C4CC4)ncnc32)[C@H](O)C1 (racemic) [Example P6-16, rac-2-((3R,4R)-4-((4-(cyclopropyl((6-(trifluoromethyl)pyridin-3-yl)methyl)amino)-7H-pyrrolo[2,3-d]pyrimidin-7-yl)methyl)-3-hydroxypiperidin-1-yl)acetamide]	5 nM	17 nM	
NC(=O)CN1CC[C@@H](Cn2cc(F)c3c(N(Cc4ccc(C(F)(F)F)cn4)C4CC4)ncnc32)[C@H](O)C1 (racemic) [Example P6-18, rac-2-((3R,4R)-4-((4-(cyclopropyl((5-(trifluoromethyl)pyridin-2-yl)methyl)amino)-5-fluoro-7H-pyrrolo[2,3-d]pyrimidin-7-yl)methyl)-3-hydroxypiperidin-1-yl)acetamide]	4.6 nM	14 nM	
CC(C)N(Cc1ccc(C(F)(F)F)cc1)c1ncnc2c1c(F)cn2C[C@@H]1CCN(CC(N)=O)C[C@H]1O (racemic) [Example P6-19, rac-2-((3R,4R)-4-((5-fluoro-4-(isopropyl(4-(trifluoromethyl)benzyl)amino)-7H-pyrrolo[2,3-d]pyrimidin-7-yl)methyl)-3-hydroxypiperidin-1-yl)acetamide]	9.8 nM	15 nM	
CCN(Cc1ccc(C(F)(F)F)cc1)c1ncnc2c1c(F)cn2C[C@@H]1CCN(CC(N)=O)C[C@H]1O (racemic) [Example P6-21, rac-2-((3R,4R)-4-((4-(ethyl(4-(trifluoromethyl)benzyl)amino)-5-fluoro-7H-pyrrolo[2,3-d]pyrimidin-7-yl)methyl)-3-hydroxypiperidin-1-yl)acetamide]	6.6 nM	11 nM	
NC(=O)CN1CC[C@@H](Cn2ccc3c(N(Cc4ccc(C(F)(F)F)cn4)C4CC4)ncnc32)[C@H](O)C1 (racemic) [Example P6-23, rac-2-((3R,4R)-4-((4-(cyclopropyl((5-(trifluoromethyl)pyridin-2-yl)methyl)amino)-7H-pyrrolo[2,3-d]pyrimidin-7-yl)methyl)-3-hydroxypiperidin-1-yl)acetamide]	5.3 nM	12 nM	
CCN(Cc1ccc(C(F)(F)F)cc1)c1ncnc2c1ccn2C[C@@H]1CCN(CC(N)=O)C[C@H]1O (racemic) [Example P6-24, rac-2-((3R,4R)-4-((4-(ethyl(4-(trifluoromethyl)benzyl)amino)-7H-pyrrolo[2,3-d]pyrimidin-7-yl)methyl)-3-hydroxypiperidin-1-yl)acetamide]	4.6 nM	22 nM	
CC(C)N(Cc1ccc(C(F)(F)F)cc1)c1ncnc2c1ccn2C[C@@H]1CCN(CC(N)=O)C[C@H]1O (racemic) [Example P6-25, rac-2-((3R,4R)-3-hydroxy-4-((4-(isopropyl(4-(trifluoromethyl)benzyl)amino)-7H-pyrrolo[2,3-d]pyrimidin-7-yl)methyl)piperidin-1-yl)acetamide]	15 nM	35 nM	
NC(=O)C(CO)N1CC[C@@H](Cn2ccc3c(N(Cc4ccc(C(F)(F)F)cc4)C4CC4)ncnc32)[C@H](O)C1 (mixture of isomers) [Example P6-37, rac-2-((3R,4R)-4-((4-(Cyclopropyl(4-(trifluoromethyl)benzyl)amino)-7H-pyrrolo[2,3-d]pyrimidin-7-yl)methyl)-3-hydroxypiperidin-1-yl)-3-hydroxypropanamide]	2 nM	7 nM	
NC(=O)CN1CC[C@@H](Cn2cnc3c(N(Cc4ccc(C(F)(F)F)cc4)C4CC4)ncnc32)[C@H](O)C1 (relative stereo) [P6-26″, rel-2-((3R,4R)-4-((6-(cyclopropyl(4-(trifluoromethyl)benzyl)amino)-9H-purin-9-yl)methyl)-3-hydroxypiperidin-1-yl)acetamide]	5.1 nM	21 nM	
CCN(Cc1ccc(C(F)(F)F)cn1)c1ncnc2c1ccn2C[C@@H]1CCN(CC(N)=O)C[C@H]1O (relative stereo) [P6-27″, rel-2-((3R,4R)-4-((4-(ethyl((5-(trifluoromethyl)pyridin-2-yl)methyl)amino)-7H-pyrrolo[2,3-d]pyrimidin-7-yl)methyl)-3-hydroxypiperidin-1-yl)acetamide]	12 nM	70 nM	
N#Cc1cn(CC2CCN(CC(N)=O)CC2)c2ncnc(N(Cc3ccc(C(F)(F)F)cc3)C3CC3)c12 [Example P6-07, 2-(4-((5-cyano-4-(cyclopropyl(4-(trifluoromethyl)benzyl)amino)-7H-pyrrolo[2,3-d]pyrimidin-7-yl)methyl)piperidin-1-yl)acetamide]	279 nM		
CC(C(N)=O)N1CCC(Cn2cnc3c(N(Cc4ccc(C(F)(F)F)cc4)C4CC4)ncnc32)CC1 (stereo not shown) [Example P6-08, 2-(4-((6-(cyclopropyl(4-(trifluoromethyl)benzyl)amino)-9H-purin-9-yl)methyl)piperidin-1-yl)propanamide]	231 nM		
CC(C)(C(N)=O)N1CCC(Cn2cnc3c(N(Cc4ccc(C(F)(F)F)cc4)C4CC4)ncnc32)CC1 [Example P6-09, 2-(4-((6-(cyclopropyl(4-(trifluoromethyl)benzyl)amino)-9H-purin-9-yl)methyl)piperidin-1-yl)-2-methylpropanamide]	> 1000 nM		
NC(=O)CN1CCC(Cn2cc(F)c3c(N(Cc4ccc(C(F)(F)F)nc4)C4CC4)ncnc32)CC1 [Example P6-10, 2-(4-((4-(cyclopropyl((6-(trifluoromethyl)pyridin-3-yl)methyl)amino)-5-fluoro-7H-pyrrolo[2,3-d]pyrimidin-7-yl)methyl)piperidin-1-yl)acetamide]	93 nM		
NC(=O)CN1CCC(Cn2ccc3c(N4CCOC[C@@H]4c4ccc(C(F)(F)F)cn4)ncnc32)CC1 [Example Q4-2, (S)-2-(4-((4-(3-(5-(trifluoromethyl)pyridin-2-yl)morpholino)-7H-pyrrolo[2,3-d]pyrimidin-7-yl)methyl)piperidin-1-yl)acetamide]	330 nM		< 500 nM
